The values below come from patent US20150164837A1, “USE OF AMPHOTERIC SURFACTANTS FOR THE PREVENTION AND TREATMENT OF PATHOGENIC VAGINAL BIOFILMS IN VAGINAL INFECTIONS” (DR. AUGUST WOLFF GMBH & CO. KG ARZNEIMITTEL, priority 2012, published 2015).

The subject of data set [1] is vaginal biofilm (Gardnerella vaginalis, Atopobium vaginae). The settings on record: cited from earlier work.
Data set [2] concerns Gardnerella vaginalis biofilms. In words: Live/Dead BacLight viability staining, forming (t0) and well developed, still growing (t20m) biofilms. In kind it is cell-based, Gardnerella vaginalis (strain ATCC 14018). The settings on record: for inhibition of cell viability (in words): well developed and still growing biofilms (t20m). How it is done:
(§1) The inhibitory effect of amphoteric surfactants on the formation of Gardnerella vaginalis biofilms were tested in biofilms, grown in 96 well tissue culture test plates. Before starting the biofilm experiments, MIC (minimal inhibitory concentration) values for sodium cocoamphoacetate for planktonic growing Gardnerella vaginalis cultures were determined MIC values for sodium cocoamphoacetate against Gardnerella vaginalis had not been reported so far.
(§2) Gardnerella vaginalis (strain ATCC 14018) were grown on Columbia agar plates supplemented with 5% sheep blood, liquid cultures were grown in brain heart infusion broth supplemented with 2% (w/v) gelatine, 0.5% yeast extract, 0.1% starch and 1% D-(+)-glucose at 37° C. and with the addition of 5% CO2.
For a preculture, bacteria were inoculated from plate or glycerol stock and grew overnight. This preculture was used for starting a new culture. Here the cultivation was performed in microtiter plates in a final volume of […] For testing substances in a forming biofilm (t0), substances were added at this time point. After 20 hours of cultivation, measurements determining the mass of biofilm cells and the biofilm viability were started. […]
The viability was determined using the Live/Dead BacLight bacterial viability staining. […] In contrast, propidium iodide penetrates only bacteria with damaged membranes, causing a reduction in the SYTO 9 stain fluorescence when both dyes are present. […] After 15 min of incubation in the dark fluorescence was measured in a microtiter plate reader equipped with detectors and filter sets for monitoring red (630 nm) and green (530 nm) fluorescence. Afterwards the percentage of the reduction of viability was calculated.
The tested substances namely cocoamidopropyl hydroxysultaine, disodium cocamphodiacetate, sodium cocoamphopropionate and sodium lauroamphoacetate were dissolved in fresh media and added to a mature G. vaginalis biofilm (t20m, see Example 1). After another 20 hrs of incubation, the biofilm viability was determined via Live/Dead staining, as described above.

In data set [3] the test system is Gardnerella vaginalis biofilms. In words: Crystal violet staining of biofilm mass, forming (t0) and well developed, still growing (t20m) biofilms. To be noted: for inhibition of biofilm formation / reduction of cell mass (in words): well developed and still growing biofilms (t20m). The format is cell-based, Gardnerella vaginalis (strain ATCC 14018). On the procedure: as §1, §2
For a preculture, bacteria were inoculated from plate or glycerol stock and grew overnight. This preculture was used for starting a new culture. Here the cultivation was performed in microtiter plates in a final volume of […] For testing substances in a forming biofilm (t0), substances were added at this time point. After 20 hours of cultivation, measurements determining the mass of biofilm cells and the biofilm viability were started.
For testing substances in a well developed and further growing biofilm (t20m), medium was gently removed after 20 hours of cultivation and compounds were added in fresh medium for enabling further growth. Incubation was performed for another 20 hours.
At 20 hours (t0) respectively 40 hours of cultivation (t20m) measurements were started, concerning the biofilm formation and viability.
(§3) Crystal violet (CV) staining was used to determine the mass of biofilm cells. For this purpose biofilms grown in 96 well tissue test plates were washed with buffer (PBS, pH of 7.4), dried and stained under shaking with 2% crystal violet in ethanol. After washing with buffer, drying and over night extraction with ethanol, the absorbance (OD620) was measured in a plate reader and the percentage of biomass inhibition was calculated.

Data set [4] concerns Gardnerella vaginalis biofilms in the stationary phase. In words: Biomass of biofilms in the stationary phase (compounds added in PBS to 20 hours old biofilms). In kind it is cell-based. To be noted: 1 mg/ml to 50 mg/ml. How it is done:
as §3, with “calculated. To determine how different concentrations of sodium cocoamphoacetate damage well formed biofilms in the stationary phase, compounds were added in PBS buffer to 20 hours old biofilms and analyzed after further 20 hours of incubation by determining their biomass and viability.” for “calculated.”

As for `Cc1ncc([N+](=O)[O-])n1CCO` [metronidazole], in data set [1] (500 mg orally twice daily for 7 days, 18 women), the “effect on the vaginal biofilm” value is listed as “did not erase the Gardnerella vaginalis biofilm completely”. For the same compound, the “Nugent Score after treatment” value in data set [1] (after 7 day treatment with oral metronidazole) is reported as “below 7”.

As for sodium lauroamphoacetate, the “inhibition of cell viability (in words)” value in data set [2] was “inhibit the viability”. Moreover, the “inhibition of biofilm formation / reduction of cell mass (in words)” value in data set [3] is given as “reduce the cell mass”.

Turning to sodium cocoamphoacetate, the “decrease of viability of the bacterial cells” value in data set [2] (added at the beginning of biofilm cultivation (t0), 0.25 mg/ml to 1 mg/ml) was found to be 90%. In data set [3] (added at the beginning of biofilm cultivation (t0), concentrations of 0.25 mg/ml and higher), the “inhibition of biofilm formation” value is “completely inhibited”. Besides, the “reduction in biofilm formation” value in data set [4] is 44-65%.

For disodium cocamphodiacetate, the “inhibition of cell viability (in words)” value in data set [2] was “inhibit the viability”. Moreover, the “inhibition of biofilm formation / reduction of cell mass (in words)” value in data set [3] was “reduce the cell mass”.
